Test results: patent US4734275A, “Anti-curare agents” (priority 1986, dated 1988)
Like-named read-outs stand apart in the source and are kept apart here.

Legend:
central nervous system = experiment: Central nervous system stimulatory effects: pentobarbital-induced loss of righting reflex (LRR); type: in vivo, male Sprague-Dawley rats; conditions: for Loss of righting reflex, Onset / Loss of righting reflex, Duration: with 35 mg/kg pentobarbital s.c., LF-10, LF-14 1.1 mg/kg, 4-AP, 3,4-DAP 1.5 mg/kg, mean; for Loss of righting reflex, Onset: control 11.4; for Loss of righting reflex, Duration: control 71.9; for effect on pentobarbital induced LRR / barbiturate CNS effects (in words): with pentobarbital 35 mg/kg s.c.
Protocol: Tests were conducted to determine the stimulatory effects of the compounds of the present invention upon the central nervous system. Male Sprague-Dawley rats were injected subcutaneously with 35 mg/kg of pentobarbital alone, or together with 1.1 mg/kg of LF-10 or LF-14, or 1.5 mg/kg of 4-AP or 3,4-DAP (Foldes, et al., Anesthesiology 57:A-273, 1982). The time of onset and duration of the loss of righting reflex (LRR) was observed.

[1] = test system: sciatic nerve-tibialis anterior muscle preparations; experiment: Antagonism of relaxant-induced neuromuscular block in vivo, rat sciatic nerve-tibialis anterior muscle; parameters: species or system male Sprague-Dawley rats; conditions: for Relative Molar Potency, In Vivo: 4-Aminopyridine = 1.0; for ED 50 of Antagonists, In Vivo / ED50: i.v., means + SEM of 4 experiments, dose raising twitch tension to 50% of control in >90% steady state block; for ED50: Rattus norvegicus, iv, read-out: ED 50 of Antagonists, In Vivo
From the text: (§1) In in vitro tests to determine neuromuscular potency, phrenic nerve-hemidiaphragm preparations from male Sprague-Dawley rats were suspended in modified Krebs solution. In vivo experiments focused on the sciatic nerve-tibialis anterior muscle preparations in male Sprague-Dawleyrats. In each case, stimulation of nerves was accomplished via bipolar platinum electrodes, with supramaximal impulses of 0.2 msec duration at 0.1 HZ, and the isometric twitches were continuously recorded. Greater than 90 % steady state neuromuscular block was achieved either by addition of appropriate concentrations (in vitro) or continuous i.v. infusions (in vivo) of either d-tubocurarine or pancuronium. Antagonism of the induced neuromuscular block was accomplished by the addition of increments of 4-AP, 3,4-DAP, LF-10 or LF-14.
(§2) **The concentration in vitro or the i.v. dose that will increase twitch
(§3) tension to 50% of control in the presence of the concentration or dose of
(§4) muscle relaxant that caused a >90% steady state block.

[2] = test system: phrenic nerve-hemidiaphragm preparations; experiment: Antagonism of relaxant-induced neuromuscular block in vitro, rat phrenic nerve-hemidiaphragm; type: cell-based, male Sprague-Dawley rats; parameters: ED 50 of Antagonists, In Vitro: unit not given here; conditions: for Relative Molar Potency, In Vitro: 4-Aminopyridine = 1.0; for ED 50 of Antagonists, In Vitro: means + SEM of 4 experiments, concentration raising twitch tension to 50% of control in >90% steady state block
From the text: as §1, §2, §3, §4

neuromuscular blocks = conditions: background; Bowman and Savage 1981; Agoston et al. 1978; cited from earlier work
[3] = background; Marshall 1982; cited from earlier work
[4] = test system: anticholinesterase activity; conditions: background; cited from earlier work
[5] = molar basis, nondepolarizing muscle relaxants
[6] = neuromuscular blocks induced by curare

Row | Compound | Loss of righting reflex, Onset (central nervous system) [min] | Loss of righting reflex, Duration (central nervous system) [min] | effect on pentobarbital induced LRR / barbiturate CNS effects (in words) (central nervous system) | Relative Molar Potency, In Vivo ([1]; muscle relaxant Pancuronium) | Relative Molar Potency, In Vivo ([1]; muscle relaxant d-Tubocurarine) | Relative Molar Potency, In Vitro ([2]; muscle relaxant Pancuronium) | Relative Molar Potency, In Vitro ([2]; muscle relaxant d-Tubocurarine) | ED50 ([1]; muscle relaxant Pancuronium) [mg/kg] | ED50 ([1]; muscle relaxant d-Tubocurarine) [mg/kg] | also measured
1 | 1,1-dimethyl-(3,4-pyridyl)-urea [LF-10] | 14.8 | 63.7 | some effect on shortening the duration of LRR | 2.3 | 7.5 | 3.4 | 4.3 |  |  | ED 50 of Antagonists, In Vivo ([1]; muscle relaxant Pancuronium): 0.13 + 0.00 mg/Kg; ED 50 of Antagonists, In Vivo ([1]; muscle relaxant d-Tubocurarine): 0.09 + 0.00 mg/Kg; ED 50 of Antagonists, In Vitro ([2]; muscle relaxant Pancuronium): 0.5; ED 50 of Antagonists, In Vitro ([2]; muscle relaxant d-Tubocurarine): 0.4
2 | Nc1ccncc1N [3,4-Diaminopyridine, 3,4-diaminopyridine, reference compound] | 13.3 | 78.9 |  | 0.8 | 1.6 | 2.7 | 2.1 | 0.18 | 0.12 | 
3 | CN(C)C(=O)Nc1cnccc1N [LF-14, 1,1-Dimethyl-3-(4-amino-3-pyridyl)-urea] | 12.4 | 75.7 | substantially no effect on the pentobarbital induced LRR | 8.2 | 9 | 17 | 17 | 0.04 | 0.04 | stimulatory effects on the central nervous system (in words) (central nervous system; rat, in vivo): no stimulatory effects on the central nervous system; neuromuscular potency / antagonism (in words), in vivo [1, 5]: greatest both in vitro and in vivo; molar potency relative to 4-AP, in vivo [1, 6]: 9 times that of 4-AP; neuromuscular potency / antagonism (in words), in vitro [2, 5]: greatest both in vitro and in vivo; molar potency relative to 4-AP, in vitro [2, 6]: 17 times that of 4-AP
4 | Nc1ccncc1 [4-Aminopyridine, 4-aminopyridine, reference compound] | 15.2 | 42.0 | significantly (p<0.001) reduce the central nervous system effects of barbiturates |  |  |  |  | 0.13 | 0.17 | reversal of muscle relaxants and antagonism of other neuromuscular blocks (in words) (neuromuscular blocks): not only reverse the side effects of clinically used muscule relaxants, but also antagonize the effects of the other neuromuscular blocks listed above; undesirable side effects (in words) [3]: elevated blood pressure, anxiety, insomnia, and a level of central nervous system stimulation which may manifest itself ultimately in convulsions; anticholinesterase activity (in words) [4]: no anticholinesterase activity
